Test results as given in patent US8263606B2 (Xenon Pharmaceuticals Inc., priority 2008, dated 2012).
pIC50: −log10 of the molar value.

Assays:
CYP3A4 = CYP3A4 (Homo sapiens, UniProt P08684); assay: Cytochrome P450 (CYP450) Inhibition Assay, CYP3A4 (Vivid fluorescence, BOMCC substrate); details: human, P450 Baculosomes (recombinant CYP3A4), probe BOMCC (Vivid substrate)
sodium channel = assay: Guanidine influx assay (14C-guanidine radiotracer flux, in vitro); type: cell-based, human or rat; details: guanidine influx assay using a known cell line that expresses a sodium channel
Outline: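 IC50 derives from a four-parameter logistic fit of 14C-guanidine uptake, test agent serially half-diluted around a 1 μM midpoint. Flux was driven by aconitine in low-sodium HEPES/choline saline at ambient temperature, using endogenous or recombinant human or rat sodium-channel cell lines plated ~100,000/well for 20–24 h.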

Sequence of CYP3A4 (P08684 whole entry): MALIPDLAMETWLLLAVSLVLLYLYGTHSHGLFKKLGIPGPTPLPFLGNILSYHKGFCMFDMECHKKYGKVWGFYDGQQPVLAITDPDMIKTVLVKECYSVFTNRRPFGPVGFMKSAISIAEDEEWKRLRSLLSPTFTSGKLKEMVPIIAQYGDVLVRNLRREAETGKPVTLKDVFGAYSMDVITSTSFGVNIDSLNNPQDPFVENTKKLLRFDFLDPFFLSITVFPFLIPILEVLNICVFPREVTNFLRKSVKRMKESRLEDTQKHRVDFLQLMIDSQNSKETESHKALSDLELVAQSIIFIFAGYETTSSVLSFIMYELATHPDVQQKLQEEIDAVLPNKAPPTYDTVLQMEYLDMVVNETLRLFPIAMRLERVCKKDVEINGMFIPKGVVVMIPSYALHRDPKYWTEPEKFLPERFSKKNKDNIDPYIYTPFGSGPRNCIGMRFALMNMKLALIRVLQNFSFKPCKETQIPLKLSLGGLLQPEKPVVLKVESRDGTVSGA

Structure (SMILES) | melting point [°C] | inhibition at 10 µM (CYP3A4) [%] | pIC50 (sodium channel) | pIC50 (sodium channel; activity level class)
Cc1noc(-c2cccc(CN3C(=O)C4(COc5cc6c(cc54)OCCO6)c4ccccc43)c2)n1 (stereo not drawn) [Example 28, 1′-[3-(3-methyl-1,2,4-oxadiazol-5-yl)benzyl]-2,3-dihydrospiro[furo[2,3-g][1,4]benzodioxine-8,3′-indol]-2′(1′H)-one] | 80 to 89 | < 50 | 7.00 to 9.00 | 
COc1ccc(CN2C(=O)C3(COc4cc5onc(N)c5cc43)c3ccccc32)cc1 (stereo not drawn) [Example 44, 3-amino-1′-(4-methoxybenzyl)spiro[furo[3,2-f][1,2]benzisoxazole-5,3′-indol]-2′(1′H)-one] | 214 to 216 | > 50 | 6.00 to 7.00 | 
Cn1c(=O)oc2cc3c(cc21)C1(CO3)C(=O)Nc2ccccc21 (stereo not drawn) [Example 3.14, 1-methylspiro[furo[3,2-f][1,3]benzoxazole-7,3′-indole]-2,2′(1′H,1′H)-dione] | > 250 | < 50 |  | 5.00 to 6.00
O=C1N(Cc2ncccc2C(F)F)c2ccccc2[C@]12COc1cc3c(cc12)OCCO3 [Example 11.81, (8S)-1′-{[3-(difluoromethyl)pyridin-2-yl]methyl}-2,3-dihydrospiro[furo[2,3-g][1,4]benzodioxine-8,3′-indol]-2′(1′H)-one] | 181 to 182 | < 50 | 7.00 to 9.00 | 
O=C1N(Cc2ccc(Br)cn2)c2ccccc2C12COc1cc3c(cc12)OCCO3 (stereo not drawn) [Example 1.14, 1′-[(5-bromopyridin-2-yl)methyl]-2,3-dihydrospiro[furo[2,3-g][1,4]benzodioxine-8,3′-indol]-2′(1′H)-one] | 201 to 202 | > 50 |  | 7.00 to 9.00
CCNC(=O)c1ccc(CN2C(=O)C3(COc4cc5c(cc43)CCO5)c3ccccc32)cc1 (stereo not drawn) [Example 12.39, N-ethyl-4-[(2′-oxo-5,6-dihydrospiro[benzo[1,2-b:5,4-b′]difuran-3,3′-indol]-1′(2′H)-yl)methyl]benzamide] | 190 to 191 | > 50 | 6.00 to 7.00 | 
O=C1N(Cc2ncccc2Br)c2ccccc2C12COc1cc3c(cc12)OCCO3 (stereo not drawn) [Example 11.78] | 217 to 218 | < 50 | 7.00 to 9.00 | 
CC(C)N1CCC(CN2C(=O)C3(COc4cc5c(cc43)OCCO5)c3ccccc32)CC1.Cl (stereo not drawn) [Example 11.100, 1′-{[1-(1-methylethyl)piperidin-4-yl]methyl}-2,3-dihydrospiro[furo[2,3-g][1,4]benzodioxine-8,3′-indol]-2′(1′H)-one hydrochloride] | 213 to 216 | > 50 | 5.00 to 6.00 | 
COc1cc(CN2C(=O)C3(COc4cc5c(cc43)OCCO5)c3ccccc32)ccc1F (stereo not drawn) [Example 4.95, 1-(4-fluoro-3-methoxybenzyl)-2,3-dihydrospiro[furo[2,3-g][1,4]benzodioxine-8,3′-indol]-2′(1′H)-one] | 161 to 163 | > 50 |  | 7.00 to 9.00
O=C1N(Cc2cnccn2)c2ccccc2[C@]12COc1cc3c(cc12)OCCO3 [Example 5.16, (8S)-1′-(pyrazin-2-ylmethyl)-2,3-dihydrospiro[furo[2,3-g][1,4]benzodioxine-8,3′-indol]-2′(1′H)-one] | 216 to 218 | < 50 |  | 7.00 to 9.00
COc1ccc2c(c1OC)C1(COc3cc4c(cc31)OCCO4)C(=O)N2Cc1ccc(C(F)(F)F)o1 (stereo not drawn) [Example 2.63, 4′,5′-dimethoxy-1′-{[5-(trifluoromethyl)furan-2-yl]methyl}-2,3-dihydrospiro[furo[2,3-g][1,4]benzodioxine-8,3′-indol]-2′(1′H)-one] | 62 to 65 | > 50 |  | 6.00 to 7.00
O=C1N(Cc2ccc(C(F)(F)F)o2)c2cc3c(cc2C12COc1cc4c(cc12)CCO4)OCCO3 (stereo not drawn) [Example 2.25, 6-((5-(trifluoromethyl)furan-2-yl)methyl)-2,3,5′,6′-tetrahydro-2′H-spiro[f-[1,4]dioxino[2,3-f]indole-8,3′-benzofuro[6,5-b]furan]-7(6H)-one] | 189 to 191 | > 50 |  | 6.00 to 7.00
CN1C(=O)COc2cc3c(cc21)C1(CO3)C(=O)Nc2ccccc21 (stereo not drawn) [Example 3.22, 1-methyl-1H-spiro[furo[3,2-g][1,4]benzoxazine-8,3′-indole]-2,2′(1′H,3H)-dione] | > 250 | < 50 |  | 5.00 to 6.00
O=C1N(Cc2cccc(O)c2)c2ccccc2C12COc1cc3c(cc12)CCO3 (stereo not drawn) [Example 11.45, 1′-(3-hydroxybenzyl)-5,6-dihydrospiro[benzo[1,2-b:5,4-b′]difuran-3,3′-indol]-2′(1′H)-one] | 225 to 227 | > 50 | 6.00 to 7.00 | 
COc1cc(OC)c2c(c1)N(Cc1ccccn1)C(=O)C21COc2cc3c(cc21)OCCO3 (stereo not drawn) [Example 9.74, 4′,6′-dimethoxy-1′-(pyridin-2-ylmethyl)-2,3-dihydrospiro[furo[2,3-g][1,4]benzodioxine-8,3′-indol]-2′(1′H)-one] | 187 to 188 | > 50 | 6.00 to 7.00 | 
Cc1cccc(NC(=O)c2ccccc2CN2C(=O)C3(COc4cc5c(cc43)CCO5)c3ccccc32)c1 (stereo not drawn) [Example 12.19, N-(3-methylphenyl)-2-[(2′-oxo-5,6-dihydrospiro[benzo[1,2-b:5,4-b′]difuran-3,3′-indol]-1′(2′H)-yl)methyl]benzamide] | 229 to 231 | > 50 | 5.00 to 6.00 | 
O=C1N(CC2CCOCC2)c2ccccc2C12COc1cc3c(cc12)OCCO3 (stereo not drawn) [Example 4.37, 1′-(tetrahydro-2H-pyran-4-ylmethyl)-2,3-dihydrospiro[furo[2,3-g][1,4]benzodioxine-8,3′-indol]-2′(1′H)-one] | 129 to 131 | < 50 |  | 7.00 to 9.00
Cn1c(CN2C(=O)C3(COc4cc5c(cc43)OCCO5)c3ccccc32)nc2ccccc21 (stereo not drawn) [Example 4.120, 1′-[(1-methyl-1H-benzimidazol-2-yl)methyl]-2,3-dihydrospiro[furo[2,3-g][1,4]benzodioxine-8,3′-indol]-2′(1′H)-one] | > 240 | > 50 |  | 7.00 to 9.00
O=C1N(Cc2ccc3nsnc3c2)c2ccccc2C12COc1cc3c(cc12)OCCO3 (stereo not drawn) [Example 4.118, 1′-(2,1,3-benzothiadiazol-5-ylmethyl)-2,3-dihydrospiro[furo[2,3-g][1,4]benzodioxine-8,3′-indol]-2′(1′H)-one] | 189 to 191 | > 50 |  | 7.00 to 9.00
O=C1N(CCCO)c2ccccc2C12COc1cc3c(cc12)CCO3 (stereo not drawn) [Example 11.34, 1′-(3-hydroxypropyl)-5,6-dihydrospiro[benzo[1,2-b:5,4-b′]difuran-3,3′-indol]-2′(1′H)-one] | 54 to 56 | < 50 | 6.00 to 7.00 | 
O=C1N(Cc2noc(C(F)F)n2)c2cccc(Cl)c2C12COc1cc3c(cc12)OCO3 (stereo not drawn) [Example 11.21] | 179 to 182 | > 50 | 7.00 to 9.00 | 
Cc1ccc(NC(=O)c2ccccc2CN2C(=O)C3(COc4cc5c(cc43)CCO5)c3ccccc32)c(C)c1 (stereo not drawn) [Example 12.10, N-(2,4-dimethylphenyl)-2-[(2′-oxo-5,6-dihydrospiro[benzo[1,2-b:5,4-b′]difuran-3,3′-indol]-1′(2′H)-yl)methyl]benzamide] | 207 to 208 | > 50 | 5.00 to 6.00 | 
O=C1N(Cc2ccccc2C(F)(F)F)c2ccccc2[C@]12COc1cc3c(cc12)OCCO3 [Example 4.116, (8S)-1′-[2-(trifluoromethyl)benzyl]-2,3-dihydrospiro[furo[2,3-g][1,4]benzodioxine-8,3′-indol]-2′(1′H)-one] | 137 to 138 | < 50 |  | 7.00 to 9.00
CC(C)CCN1C(=O)[C@]2(COc3cc4c(cc32)CCO4)c2ccccc21 [Example 5.2, (3R)-1-(3-methylbutyl)-5,6-dihydrospiro[benzo[1,2-b:5,4-b′]difuran-3,3′-indol]-2′(1′H)-one] | 86 to 87 | > 50 |  | 5.00 to 6.00
C[C@@H](CN1C(=O)C2(COc3cc4c(cc32)CCO4)c2ccccc21)OCOCc1ccccc1 (stereo partly drawn) [Example 4.25, 1′-{(2S)-2-[(benzyloxy)methoxy]propyl}-5,6-dihydrospiro[benzo[1,2-b:5,4-b′]difuran-3,3′-indol]-2′(1′H)-one] | 49 to 52 | > 50 |  | 6.00 to 7.00
CN1C(=O)COc2cc3c(cc21)C1(CO3)C(=O)N(C[C@H]2CCCO2)c2ccccc21 (stereo partly drawn) [Example 4.59, 1-methyl-1′-[(2R)-tetrahydrofuran-2-ylmethyl]-1H-spiro[furo[3,2-g][1,4]benzoxazine-8,3′-indole]-2,2′(1′H-3H)-dione] | 79 to 81 | < 50 |  | 5.00 to 6.00
COC(=O)c1ccc(CN2C(=O)C3(COc4cc5c(cc43)CCO5)c3ccccc32)cc1 (stereo not drawn) [Example 9.16, methyl 4-[(2′-oxo-5,6-dihydrospiro[benzo[1,2-b:5,4-b′]difuran-3,3′-indol]-1′(2′H)-yl)methyl]benzoate] | 136 to 140 | < 50 |  | 7.00 to 9.00
O=C1N(Cc2ncccn2)c2ccccc2C12COc1cc3c(cc12)CCO3 (stereo not drawn) [Example 9.5, 1′-(pyrimidin-2-ylmethyl)-5,6-dihydrospiro[benzo[1,2-b:5,4-b′]difuran-3,3′-indol]-2′(1′H)-one] | 203 to 205 | < 50 |  | 7.00 to 9.00
